Assay results published in PubChem BioAssay (NCI).
Several values for one entry are separate records, joined by “and”; a condition that tells them apart may be missing. Equal values may be shown once.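 A five-concentration, 48-hour dose response in 96-well plates underlies each endpoint, interpolated linearly between surrounding concentrations. GI50 is the concentration that inhibits growth by half. TGI denotes the concentration required for complete inhibition of growth.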

What was measured:
Assay in all cases: growth of human tumour cells (NCI), 48 h
CAKI-1 renal = system: CAKI-1 renal
HL-60(TB) leukemia = system: HL-60(TB) leukemia
HT29 colon = system: HT29 colon
MALME-3M melanoma = system: MALME-3M melanoma
MDA-MB-435 = system: MDA-MB-435
OVCAR-5 ovarian = system: OVCAR-5 ovarian
PC-3 prostate = system: PC-3 prostate
SK-OV-3 ovarian = system: SK-OV-3 ovarian
SW-620 colon = system: SW-620 colon
HCT-116 colon = system: HCT-116 colon

SMILES | GI50 (CAKI-1 renal) | TGI (CAKI-1 renal) | GI50 (HL-60(TB) leukemia) | TGI (HL-60(TB) leukemia) | GI50 (HT29 colon) | TGI (HT29 colon) | GI50 (MALME-3M melanoma) | TGI (MALME-3M melanoma) | GI50 (MDA-MB-435) | TGI (MDA-MB-435) | GI50 (OVCAR-5 ovarian) | TGI (OVCAR-5 ovarian) | GI50 (PC-3 prostate) | TGI (PC-3 prostate) | GI50 (SK-OV-3 ovarian) | TGI (SK-OV-3 ovarian) | GI50 (SW-620 colon) | TGI (SW-620 colon) | TGI (HCT-116 colon) | GI50 (HCT-116 colon)
C[C@@H](CO)[C@@H]1CCC=C2CC[C@]3(C)[C@H](CC[C@@H]4[C@@]5(C)CCCNC(C)(C)[C@@H]5CC[C@]43C)[C@H]21 | 1.89 µM | 4.25 µM | 1.98 µM | 4.54 µM | 1.85 µM | 4.49 µM | 1.71 µM | 3.36 µM | 1.76 µM | 3.53 µM | 3.18 µM | 12.6 µM | 2.97 µM | 13.4 µM | 12.8 µM | 30.8 µM | 1.86 µM | 3.62 µM |  | 
COc1ccc2c(c1)n([O-])c1ccccc1[n+]2=O | 25.3 µM and 8 µM | > 100 µM and 27 µM | 45.2 µM and 4.54 µM | > 100 µM |  | > 100 µM |  | > 100 µM and 69.9 µM | 65.4 µM and 22.2 µM | > 100 µM and 46.4 µM |  | > 100 µM | 91.9 µM and 28.3 µM | > 100 µM and 73.1 µM |  | 94.8 µM |  | > 100 µM | > 100 µM | 
CN(CC(=O)N(Cc1ccc(C2CCCCC2)cc1)c1ccc(C(=O)O)c(O)c1)S(=O)(=O)c1c(F)c(F)c(F)c(F)c1F | 5.09 µM | 10.4 µM | 2.18 µM | 5.82 µM | 2.05 µM | 4.2 µM | 2.89 µM | 12.3 µM | 3.39 µM | 15.8 µM | 17.5 µM | 32.4 µM | 12.2 µM | 27.7 µM | 16.5 µM | 31.1 µM | 1.71 µM | 3.23 µM | 11.9 µM | 3.72 µM
COc1cc2c3c(n(CCCI)c(=O)c2cc1OC)-c1cc2c(cc1C3=O)OCO2 | 0.454 µM | > 100 µM | 1.08 µM | > 100 µM | 5.46 µM | > 100 µM | 7.57 µM | 54.6 µM | 6.06 µM | > 100 µM | > 100 µM | > 100 µM | > 100 µM | > 100 µM | > 100 µM | > 100 µM | 3.17 µM | > 100 µM | > 100 µM | 2.6 µM
COc1cc2c(cc1C)NC(=O)/C2=C\c1cccc(Oc2ccccc2)c1 | 19.4 µM | 41.2 µM | 11.9 µM | 26.8 µM | 12.1 µM | 26.1 µM | 26.1 µM | 44.6 µM | 11.8 µM | 25.9 µM | 17 µM | 32.4 µM | 12 µM | 25.2 µM | 22.3 µM | 40.9 µM | 16.1 µM | 32.9 µM | 20.4 µM | 7.88 µM
CN1CCN(c2ccc3nc(-c4ccc5nc(-c6ccc(OCCC(C)(C)C)cc6)[nH]c5c4)[nH]c3c2)CC1 | 4.15 µM | 15.7 µM | 4.71 µM | 29.1 µM | 1.78 µM | 4.07 µM | 12.2 µM | 27.2 µM | 1.97 µM | 3.99 µM | 2.96 µM | 9.96 µM | 2.63 µM | 5.81 µM | 18 µM | 36 µM | 2.12 µM | 3.96 µM |  | 
Nc1nc(-c2ccccc2)nc(N)c1N=O | 4.5 µM | 36.3 µM | 19.2 µM | 88.9 µM | 2.88 µM | 10.3 µM | 6.71 µM | 22.9 µM | 4.57 µM | 51.9 µM | 13.7 µM | 26.8 µM | 18.6 µM | 66.3 µM | 11.9 µM | 26 µM | 2 µM | 5.77 µM | 17.8 µM | 4.12 µM
COc1cc(Nc2ccnc(NCCCNc3ccnc4cc(Cl)ccc34)n2)cc(OC)c1 | 1.62 µM | 3.26 µM | 2.04 µM | 4.54 µM | 1.33 µM | 3.62 µM | 2.02 µM | 3.86 µM | 1.51 µM | 2.88 µM | 2.01 µM | 6 µM | 2.68 µM | 14.2 µM | 2.42 µM | 6.08 µM | 1.28 µM | 2.78 µM | 2.73 µM | 0.842 µM
O=C1c2ccccc2C(=O)c2c1ccc(C1C(=O)c3ccccc3C1=O)c2-c1c(C2C(=O)c3ccccc3C2=O)ccc2c1C(=O)c1ccccc1C2=O |  | > 100 µM |  | > 100 µM |  | > 100 µM |  | > 100 µM |  | > 100 µM |  | > 100 µM |  | > 100 µM |  | > 100 µM |  | > 100 µM | > 100 µM | 
